Laboratory results: patent US20030139578A1, “Antibodies specifically binding PDE8A and PDE8B” (Incyte Genomics, Inc., priority 1996, published 2003)

Biological target: T1, PDE8A(E) (Homo sapiens, UniProt O60658)
T1 construct: A 1.6 kb region of PDE8A(E) (the C-terminal 545 amino acids) was amplified and cloned into the baculovirus transfer vector pFASTBAC; made in house; host or cells: Sf9 insect cells (baculovirus, pFASTBAC)
Assay: PDE activity assay, conversion of 3H-cAMP to 3H-adenosine by recombinant PDE8A(E)
Assay type: biochemical
Details: for inhibition of PDE8A(E) activity: 1% DMSO, 50 nM cAMP, FIG. 8
Experimental: Recombinant virus stocks were prepared according to the manufacturer's protocol. Sf9 cells were cultured in Sf900 II Sfm serum free media (Invitrogen) at 27 C. For expression, 1×10^8 Sf9 cells were infected at a multiplicity of infection of 5 in a final volume of 50 mls. At three days post-infection, the cells were harvested, and enzyme-containing lysates were prepared as described below.
PDE8A(E) to be used for assay was prepared from transfected Sf9 cells. Cells were harvested by centrifugation, resuspended in homogenization buffer (20 mM Tris-HCl, 2 mM benzamidine, 1 mM EDTA, 0.25 M sucrose, 100 uM PMSF, pH 7.5) at 1×10^7 cells/ml, and disrupted with 3×10 second pulses using a Sonifier Processor (Emerson Branson, Korea). Cellular debris was removed by centrifugation at 14,000×g for 10 minutes. The supernatant was stored at −70° C.
PDE activity was assayed by measuring the conversion of ^3H-cAMP to ^3H-adenosine in the presence of PDE8A(E) and 5′ nucleotidase. […] The reaction was started by the addition of 25 ul of diluted enzyme supernatant. Reactions were run directly in mini Poly-Q scintillation vials (BeckmanCoulter, Fullerton Calif.). […] The reaction was stopped by the addition of 1 ml of Dowex AG1×8 (C1 form) resin (1:3 slurry). Three ml of scintillation fluid were added, the contents of the vials were mixed, and the resin in the vials was allowed to settle for 1 hr before counting. Soluble radioactivity associated with ^3H-adenosine was quantitated using a Beta scintillation counter. The amount of radioactivity recovered is proportional to the activity of PDE8 in the reaction. For inhibitor studies (FIG. 8), all reactions contained 1% DMSO, 50 nM cAMP, and the indicated inhibitor concentrations. The control vial contained all reagents minus the enzyme aliquot.

T1 sequence (O60658 285-829 limits assumed): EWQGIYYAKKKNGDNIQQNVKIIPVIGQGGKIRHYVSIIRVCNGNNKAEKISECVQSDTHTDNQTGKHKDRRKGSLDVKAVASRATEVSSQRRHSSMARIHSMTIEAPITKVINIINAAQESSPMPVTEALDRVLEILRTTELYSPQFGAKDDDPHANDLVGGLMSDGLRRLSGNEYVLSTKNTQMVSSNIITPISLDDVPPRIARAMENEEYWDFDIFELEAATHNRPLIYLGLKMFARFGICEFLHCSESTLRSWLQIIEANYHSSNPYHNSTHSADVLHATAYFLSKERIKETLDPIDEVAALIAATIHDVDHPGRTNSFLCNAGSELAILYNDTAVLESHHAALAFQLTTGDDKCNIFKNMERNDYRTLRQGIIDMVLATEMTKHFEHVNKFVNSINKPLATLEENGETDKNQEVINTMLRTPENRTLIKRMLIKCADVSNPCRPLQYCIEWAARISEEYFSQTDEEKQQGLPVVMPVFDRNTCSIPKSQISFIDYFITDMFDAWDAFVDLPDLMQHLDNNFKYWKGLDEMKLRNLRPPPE

Row | Structure (SMILES) | inhibition of PDE8A(E) activity | IC50 [µM]
1 | CCCOc1ccccc1-c1nc2nn[nH]c2c(=O)[nH]1 [zaprinast] | not inhibited | 
2 | CC(C)Cn1c(=O)n(C)c(=O)c2[nH]cnc21 [IBMX] | not inhibited | 
3 | COc1ccc(C2CNC(=O)C2)cc1OC1CCCC1 (stereo not drawn) [rolipram] | not inhibited | 
4 | CCOC(=O)C1=C[C@]2(CC)CCCN3CCc4c(n1c1ccccc41)[C@@H]32 [vinpocetine] | not inhibited | 
5 | CC(=O)Nc1ccc(-c2c[nH]c(=O)cn2)cc1 [SKF94120] | not inhibited | 
6 | OCCN(CCO)c1nc(N2CCCCC2)c2nc(N(CCO)CCO)nc(N3CCCCC3)c2n1 [dipyridamole] |  | 9
